Data: PMC3779320, “Bub3 reads phosphorylated MELT repeats to promote spindle assembly checkpoint signaling” (eLife, 2013)
Square brackets hold non-standard residues; d marks the D form. Peptide text beside a SMILES is read from it. pT = C[C@@H](OP(=O)(O)O)[C@H](N)C(=O)O

Tests used:
[1] = system: Bub1^289–359–Bub3^R217A–R239A; test: ITC binding to Bub1^289–359–Bub3^R217A–R239A double mutant; set-up: species or system Saccharomyces cerevisiae; conditions: 25°C, 20 mM Tris pH7.5, 150 mM NaCl, 1 mM DTE, complex 30 µM in cell, peptide 400 µM
Excerpt: Because the presence of a phosphate on Thr172^Spc105/Knl1 is essential for high-affinity binding of ScBub1^289–359–Bub3 to MELT^P peptides (Figure 1), we concentrated our mutational analysis on two residues that are directly implicated in the recognition of the peptide’s phospho-threonine, Arg217^Bub3 and Arg239^Bub3. Positively charged residues are invariant at these positions of the Bub3 alignment (Figure 2C). We generated single or double alanine mutants of Arg217^Bub3 and Arg239^Bub3 in the context of ScBub1^289–359–Bub3 and tested their binding affinity for the MELT2^P peptide by ITC.
cDNA sequences coding for S. cerevisiae Bub1^289–359 and for full length Bub3 were subcloned in the first and second cassettes of pGEX-6P-2rbs vector ([Ciferri et al., 2005]). In this construct, the cDNA encoding Bub1^289–359 was sub-cloned in frame with the gene encoding GST and a cleavage site for PreScission protease, and was translated from the first ribosome-binding site (rbs). Untagged Bub3 was subcloned downstream of the second rbs in the same vector. Expression was carried out in BL21 DE3 plysS cells in LB medium by auto-induction with 0.3% lactose at 18°C for approximately 16 hr. […]
Binding isotherm was measured at 25°C by isothermal titration calorimetry on a MicroCal ITC200 device (GE Healthcare, Piscataway, NJ). […]

Bub3 = target: T1, Bub3 (Saccharomyces cerevisiae, UniProt P26449); test: ITC binding to Bub3 in the absence of Bub1; conditions: Bub3 without Bub1 compared to the Bub1–Bub3 complex
T1 construct: S. cerevisiae Bub1^289–359 and for full length Bub3; made in house
T1 sequence (P26449 1-341): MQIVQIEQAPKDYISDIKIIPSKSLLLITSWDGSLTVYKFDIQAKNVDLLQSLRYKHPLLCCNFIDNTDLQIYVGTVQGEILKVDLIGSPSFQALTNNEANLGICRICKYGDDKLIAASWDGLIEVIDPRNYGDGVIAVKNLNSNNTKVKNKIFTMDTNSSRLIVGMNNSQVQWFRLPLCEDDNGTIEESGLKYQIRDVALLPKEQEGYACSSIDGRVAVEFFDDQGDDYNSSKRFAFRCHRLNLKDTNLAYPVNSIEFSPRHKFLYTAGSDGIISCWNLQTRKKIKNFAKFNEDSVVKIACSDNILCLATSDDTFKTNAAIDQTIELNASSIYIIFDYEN
Experimental: However, as already anticipated in the Introduction, several lines of evidence indicate that Bub1 contributes to this interaction (Discussion). To test this possibility formally, we measured the binding of purified Bub3 (Figure 1D) to the MELT2^P peptide in the absence of Bub1.
Binding isotherm was measured at 25°C by isothermal titration calorimetry on a MicroCal ITC200 device (GE Healthcare, Piscataway, NJ). All samples were extensively dialysed into fresh GF buffer (20 mM Tris pH7.5, 150 mM NaCl, 1 mM DTE). In each titration, the Bub1^289–359–Bub3 in the cell (at a 30 µM concentration) was titrated with thirty-five 2-µl injections (at 90 s intervals) of the indicated synthetic MELT^P peptides (at a concentration of 400 µM). The injections were continued beyond saturation levels to allow for determination of heats of ligand dilution. Data were fitted by least-square procedures to a single-site binding model using ORIGIN 5.0 software package (MicroCal, Northampton, MA).

Bub1^289–359–R314A–Bub3 = target: T2, Bub1^289–359–R314A–Bub3 (Saccharomyces cerevisiae, UniProt P26449+P41695, R314A); format: binding; conditions: ITC; Bub3-Bub1^R314A mutant compared to wild type Bub3–Bub1; MELT4^P: data not shown
T2 construct: S. cerevisiae Bub1^289–359 and for full length Bub3; ITC experiment with the MELT2^P peptide and the Bub1^289–359–R314A–Bub3 complex; GST (N, cleaved yes); made in house; host or cells: E. coli BL21 DE3 plysS
Excerpt: Such function of Bub1 is probably exerted primarily through its structuring effects on the 4-stranded β-sheet ‘roof’ that dominates the peptide-binding region of Bub3 and which restrains the position of the positively charged residues in the ‘north’ area of the MELT^P-binding site (Figure 4E). Additionally, we observe that Arg314^Bub1, in the β1-β2 loop, contributes to the interaction with the phosphate group of P-Thr172^Spc105/Knl1 (the interaction, however, is only observed in one of the two complexes in the asymmetric unit, and in proximity of a crystal contact) and is therefore directly engaged in the interaction with the MELT2^P peptide. In ITC measurements, we observed a ∼fourfold reduction in the binding affinity of the Bub3-Bub1^R314A mutant for the MELT2^P peptide, in agreement with a role of Arg314^Bub1 is in the interaction of the Bub1-Bub3 complex with MELT2^P (Figure 4F). Similarly, Bub3–Bub1^R314A bound the MELT4^P with ∼threefold decreased affinity compared to wild type Bub3–Bub1 (data not shown).
Binding isotherm was measured at 25°C by isothermal titration calorimetry on a MicroCal ITC200 device (GE Healthcare, Piscataway, NJ). All samples were extensively dialysed into fresh GF buffer (20 mM Tris pH7.5, 150 mM NaCl, 1 mM DTE). […]

T2 sequence (P41695 289-359 R314A, one chain of several): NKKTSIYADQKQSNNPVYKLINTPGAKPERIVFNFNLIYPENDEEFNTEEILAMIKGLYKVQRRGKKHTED

With `CC[C@H](C)[C@H](NC(=O)[C@H](CO)NC(=O)[C@H](CCCNC(=N)N)NC(=O)[C@@H]1CCCN1C(=O)[C@H](Cc1ccccc1)NC(=O)[C@@H](NC(=O)[C@H](CCC(=O)O)NC(=O)[C@@H](NC(=O)[C@H](CCSC)NC(=O)[C@H](CCC(=O)O)NC(=O)[C@H](CCSC)NC(=O)[C@H](CO)NC(=O)[C@@H](NC(=O)[C@@H]1CCCN1C(=O)[C@H](CC(=O)O)NC(C)=O)[C@@H](C)O)[C@@H](C)OP(=O)(O)O)C(C)C)C(=O)N[C@@H](CCCNC(=N)N)C(=O)N[C@@H](CCC(N)=O)C(=O)N[C@@H](CCCCN)C(=O)N[C@@H](CC(N)=O)C(N)=O` [MELT2^P] (Ac-DPTSMEM[pT]EVFPRSIRQKN-NH2; N-terminus and C-terminus assumed) the “binding (in words)” value [1] was “no significant residual binding”, the “fold reduction in binding affinity” value (Bub3) was 10 fold and the “fold reduction in binding affinity” value (Bub1^289–359–R314A–Bub3) was “fourfold”.
